Laboratory results: the supplement of paper PMC8612539

Tested on: Escherichia coli
Experiment: minimum inhibitory concentration (MIC)
Procedure: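 Broth microdilution MIC (Sensititre BOPO7F bovine plate, CLSI methods) of 19 antimicrobials against field isolates of P. multocida, M. haemolytica, H. somni (deep nasopharyngeal swabs) and E. coli, Enterococcus spp. (rectal swabs) from weaned dairy heifers. Incubation 16-24 h at 35 C. MIC is the lowest concentration preventing visible growth. Values with <= or > lie at the tested range limits. Trimethoprim-sulfamethoxazole is given as the trimethoprim component of a 1:19 mixture.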

COc1cc(Cc2cnc(N)nc2N)cc(OC)c1OC.Cc1cc(NS(=O)(=O)c2ccc(N)cc2)no1 [trimethoprim-sulfamethoxazole]
Conditions	minimum inhibitory concentration [µg/mL]
isolate (source animal id): 1	≤ 2
isolate (source animal id): 2	> 2
isolate (source animal id): 3	≤ 2
isolate (source animal id): 4	≤ 2
isolate (source animal id): 5	> 2
isolate (source animal id): 6	> 2
isolate (source animal id): 7	> 2
isolate (source animal id): 8	≤ 2
isolate (source animal id): 9	> 2
isolate (source animal id): 10	> 2
isolate (source animal id): 11	≤ 2
isolate (source animal id): 12	> 2
isolate (source animal id): 13	≤ 2
isolate (source animal id): 14	> 2
isolate (source animal id): 15	≤ 2
isolate (source animal id): 16	≤ 2
isolate (source animal id): 17	> 2
isolate (source animal id): 18	≤ 2
isolate (source animal id): 19	≤ 2
isolate (source animal id): 20	> 2
isolate (source animal id): 21	≤ 2
isolate (source animal id): 22	≤ 2
isolate (source animal id): 23	≤ 2
isolate (source animal id): 24	≤ 2
isolate (source animal id): 25	> 2
isolate (source animal id): 26	≤ 2
isolate (source animal id): 27	> 2
isolate (source animal id): 28	≤ 2
isolate (source animal id): 29	> 2
isolate (source animal id): 30	> 2
isolate (source animal id): 31	> 2
isolate (source animal id): 32	> 2
isolate (source animal id): 33	> 2
isolate (source animal id): 34	≤ 2
isolate (source animal id): 35	> 2
isolate (source animal id): 36	> 2
isolate (source animal id): 37	> 2
isolate (source animal id): 38	> 2
isolate (source animal id): 39	> 2
isolate (source animal id): 40	≤ 2
isolate (source animal id): 41	> 2
isolate (source animal id): 42	> 2
isolate (source animal id): 43	> 2
isolate (source animal id): 44	≤ 2
isolate (source animal id): 45	> 2
isolate (source animal id): 46	≤ 2
isolate (source animal id): 47	> 2
isolate (source animal id): 48	> 2
isolate (source animal id): 49	> 2
isolate (source animal id): 50	> 2
isolate (source animal id): 51	> 2
isolate (source animal id): 52	≤ 2
isolate (source animal id): 53	> 2
isolate (source animal id): 54	≤ 2
isolate (source animal id): 55	≤ 2
isolate (source animal id): 56	≤ 2
isolate (source animal id): 57	> 2
isolate (source animal id): 58	≤ 2
isolate (source animal id): 59	≤ 2
isolate (source animal id): 60	≤ 2
isolate (source animal id): 61	> 2
isolate (source animal id): 62	≤ 2
isolate (source animal id): 63	≤ 2
isolate (source animal id): 64	≤ 2
isolate (source animal id): 65	> 2
isolate (source animal id): 66	≤ 2
isolate (source animal id): 67	≤ 2
isolate (source animal id): 68	≤ 2
isolate (source animal id): 69	≤ 2
isolate (source animal id): 70	≤ 2
isolate (source animal id): 71	≤ 2
isolate (source animal id): 72	≤ 2
isolate (source animal id): 73	≤ 2
isolate (source animal id): 74	≤ 2
isolate (source animal id): 75	≤ 2
isolate (source animal id): 76	> 2
isolate (source animal id): 77	≤ 2
isolate (source animal id): 78	> 2
isolate (source animal id): 79	≤ 2
isolate (source animal id): 80	≤ 2
isolate (source animal id): 81	> 2
isolate (source animal id): 82	≤ 2
isolate (source animal id): 83	≤ 2
isolate (source animal id): 84	≤ 2
isolate (source animal id): 85	≤ 2
isolate (source animal id): 86	> 2
isolate (source animal id): 87	≤ 2
isolate (source animal id): 88	≤ 2
isolate (source animal id): 89	≤ 2
isolate (source animal id): 90	≤ 2
isolate (source animal id): 91	≤ 2
isolate (source animal id): 92	≤ 2
isolate (source animal id): 93	≤ 2
isolate (source animal id): 94	> 2
isolate (source animal id): 95	≤ 2
isolate (source animal id): 96	≤ 2
isolate (source animal id): 97	> 2
isolate (source animal id): 98	≤ 2
isolate (source animal id): 99	≤ 2
isolate (source animal id): 100	≤ 2
isolate (source animal id): 101	> 2
isolate (source animal id): 102	≤ 2
isolate (source animal id): 103	≤ 2
isolate (source animal id): 104	≤ 2
isolate (source animal id): 105	≤ 2
isolate (source animal id): 106	> 2
isolate (source animal id): 107	≤ 2
isolate (source animal id): 108	≤ 2
isolate (source animal id): 109	≤ 2
isolate (source animal id): 110	≤ 2
isolate (source animal id): 111	≤ 2
isolate (source animal id): 112	≤ 2
isolate (source animal id): 113	≤ 2
isolate (source animal id): 114	≤ 2
isolate (source animal id): 115	> 2
isolate (source animal id): 116	≤ 2
isolate (source animal id): 117	≤ 2
isolate (source animal id): 118	≤ 2
isolate (source animal id): 119	> 2
isolate (source animal id): 120	> 2
isolate (source animal id): 121	> 2
isolate (source animal id): 122	> 2
isolate (source animal id): 123	≤ 2
isolate (source animal id): 124	> 2
isolate (source animal id): 125	≤ 2
isolate (source animal id): 126	> 2
isolate (source animal id): 127	> 2
isolate (source animal id): 128	≤ 2
isolate (source animal id): 129	≤ 2
isolate (source animal id): 130	> 2
isolate (source animal id): 131	≤ 2
isolate (source animal id): 132	≤ 2
isolate (source animal id): 133	≤ 2
isolate (source animal id): 134	≤ 2
isolate (source animal id): 135	≤ 2
isolate (source animal id): 136	≤ 2
isolate (source animal id): 137	≤ 2
isolate (source animal id): 138	> 2
isolate (source animal id): 139	> 2
isolate (source animal id): 140	≤ 2
isolate (source animal id): 141	> 2
isolate (source animal id): 142	≤ 2
isolate (source animal id): 143	> 2
isolate (source animal id): 144	≤ 2
isolate (source animal id): 145	> 2
isolate (source animal id): 146	≤ 2
isolate (source animal id): 147	> 2
isolate (source animal id): 148	≤ 2
isolate (source animal id): 149	≤ 2
isolate (source animal id): 150	> 2
isolate (source animal id): 151	≤ 2
isolate (source animal id): 152	≤ 2
isolate (source animal id): 153	≤ 2
isolate (source animal id): 154	≤ 2
isolate (source animal id): 155	≤ 2
isolate (source animal id): 156	> 2
isolate (source animal id): 157	≤ 2
isolate (source animal id): 158	≤ 2
isolate (source animal id): 159	≤ 2
isolate (source animal id): 160	> 2
isolate (source animal id): 161	> 2
isolate (source animal id): 162	≤ 2
isolate (source animal id): 163	≤ 2
isolate (source animal id): 164	≤ 2
isolate (source animal id): 165	≤ 2
isolate (source animal id): 166	≤ 2
isolate (source animal id): 167	≤ 2
isolate (source animal id): 168	≤ 2
isolate (source animal id): 169	≤ 2
isolate (source animal id): 170	≤ 2
isolate (source animal id): 171	≤ 2
isolate (source animal id): 172	≤ 2
isolate (source animal id): 173	≤ 2
isolate (source animal id): 174	≤ 2
isolate (source animal id): 175	≤ 2
isolate (source animal id): 176	≤ 2
isolate (source animal id): 177	≤ 2
isolate (source animal id): 178	≤ 2
isolate (source animal id): 179	≤ 2
isolate (source animal id): 180	≤ 2
isolate (source animal id): 181	≤ 2
isolate (source animal id): 182	≤ 2
isolate (source animal id): 183	≤ 2
isolate (source animal id): 184	≤ 2
isolate (source animal id): 185	≤ 2
isolate (source animal id): 186	≤ 2
isolate (source animal id): 187	≤ 2
isolate (source animal id): 188	> 2
isolate (source animal id): 189	≤ 2
isolate (source animal id): 190	> 2
isolate (source animal id): 191	≤ 2
isolate (source animal id): 192	≤ 2
isolate (source animal id): 193	≤ 2
isolate (source animal id): 194	≤ 2
isolate (source animal id): 195	≤ 2
isolate (source animal id): 196	≤ 2
isolate (source animal id): 197	≤ 2
isolate (source animal id): 198	> 2
isolate (source animal id): 199	≤ 2
isolate (source animal id): 200	≤ 2
isolate (source animal id): 201	≤ 2
isolate (source animal id): 202	≤ 2
isolate (source animal id): 203	≤ 2
isolate (source animal id): 204	≤ 2
isolate (source animal id): 205	≤ 2
isolate (source animal id): 206	≤ 2
isolate (source animal id): 207	≤ 2
isolate (source animal id): 208	≤ 2
isolate (source animal id): 209	≤ 2
isolate (source animal id): 210	≤ 2
isolate (source animal id): 211	≤ 2
isolate (source animal id): 212	≤ 2
isolate (source animal id): 213	≤ 2
isolate (source animal id): 214	≤ 2
isolate (source animal id): 215	≤ 2
isolate (source animal id): 216	> 2
isolate (source animal id): 217	≤ 2
isolate (source animal id): 218	≤ 2
isolate (source animal id): 219	≤ 2
isolate (source animal id): 220	≤ 2
isolate (source animal id): 221	≤ 2
isolate (source animal id): 222	≤ 2
isolate (source animal id): 223	≤ 2
isolate (source animal id): 224	≤ 2
isolate (source animal id): 225	≤ 2
isolate (source animal id): 226	> 2
isolate (source animal id): 227	≤ 2
isolate (source animal id): 228	≤ 2
isolate (source animal id): 229	> 2
isolate (source animal id): 230	≤ 2
isolate (source animal id): 231	≤ 2
isolate (source animal id): 232	≤ 2
isolate (source animal id): 233	≤ 2
isolate (source animal id): 234	≤ 2
isolate (source animal id): 235	≤ 2
isolate (source animal id): 236	≤ 2
isolate (source animal id): 237	≤ 2
isolate (source animal id): 238	≤ 2
isolate (source animal id): 239	≤ 2
isolate (source animal id): 240	≤ 2
isolate (source animal id): 241	≤ 2
isolate (source animal id): 242	≤ 2
isolate (source animal id): 243	≤ 2
isolate (source animal id): 244	≤ 2
isolate (source animal id): 245	≤ 2
isolate (source animal id): 246	≤ 2
isolate (source animal id): 247	≤ 2
isolate (source animal id): 248	≤ 2
isolate (source animal id): 249	≤ 2
isolate (source animal id): 250	≤ 2
isolate (source animal id): 251	≤ 2
isolate (source animal id): 252	≤ 2
isolate (source animal id): 253	≤ 2
isolate (source animal id): 254	≤ 2
isolate (source animal id): 255	≤ 2
isolate (source animal id): 256	≤ 2
isolate (source animal id): 257	≤ 2
isolate (source animal id): 258	≤ 2
isolate (source animal id): 259	> 2
isolate (source animal id): 260	≤ 2
isolate (source animal id): 261	≤ 2
isolate (source animal id): 262	≤ 2
isolate (source animal id): 263	≤ 2
isolate (source animal id): 264	≤ 2
isolate (source animal id): 265	≤ 2
isolate (source animal id): 266	≤ 2
isolate (source animal id): 267	≤ 2
isolate (source animal id): 268	≤ 2
isolate (source animal id): 269	≤ 2
isolate (source animal id): 270	≤ 2
isolate (source animal id): 271	≤ 2
isolate (source animal id): 272	≤ 2
isolate (source animal id): 273	≤ 2
isolate (source animal id): 274	> 2
isolate (source animal id): 275	> 2
isolate (source animal id): 276	≤ 2
isolate (source animal id): 277	≤ 2
isolate (source animal id): 278	≤ 2
isolate (source animal id): 279	≤ 2
isolate (source animal id): 280	≤ 2
isolate (source animal id): 281	≤ 2
isolate (source animal id): 282	≤ 2
isolate (source animal id): 283	≤ 2
isolate (source animal id): 284	≤ 2
isolate (source animal id): 285	≤ 2
isolate (source animal id): 286	> 2
isolate (source animal id): 287	> 2
isolate (source animal id): 288	≤ 2
isolate (source animal id): 289	≤ 2
isolate (source animal id): 290	≤ 2
isolate (source animal id): 291	> 2
isolate (source animal id): 292	> 2
isolate (source animal id): 293	≤ 2
isolate (source animal id): 294	≤ 2
isolate (source animal id): 295	> 2
isolate (source animal id): 296	≤ 2
isolate (source animal id): 297	≤ 2
isolate (source animal id): 298	> 2
isolate (source animal id): 299	≤ 2
isolate (source animal id): 300	≤ 2
isolate (source animal id): 301	≤ 2
isolate (source animal id): 302	≤ 2
isolate (source animal id): 303	≤ 2
isolate (source animal id): 304	> 2
isolate (source animal id): 305	≤ 2
isolate (source animal id): 306	≤ 2
isolate (source animal id): 307	≤ 2
isolate (source animal id): 308	≤ 2
isolate (source animal id): 309	≤ 2
isolate (source animal id): 310	≤ 2
isolate (source animal id): 311	> 2
isolate (source animal id): 312	≤ 2
isolate (source animal id): 313	≤ 2
isolate (source animal id): 314	≤ 2
isolate (source animal id): 315	≤ 2
isolate (source animal id): 316	> 2
isolate (source animal id): 317	> 2
isolate (source animal id): 318	≤ 2
isolate (source animal id): 319	≤ 2
isolate (source animal id): 320	≤ 2
isolate (source animal id): 321	> 2
isolate (source animal id): 322	≤ 2
isolate (source animal id): 323	> 2
isolate (source animal id): 324	≤ 2
isolate (source animal id): 325	> 2
isolate (source animal id): 326	≤ 2
isolate (source animal id): 327	≤ 2
isolate (source animal id): 328	≤ 2
isolate (source animal id): 329	≤ 2
isolate (source animal id): 330	≤ 2
isolate (source animal id): 331	≤ 2
isolate (source animal id): 332	≤ 2
isolate (source animal id): 333	≤ 2
isolate (source animal id): 334	> 2
isolate (source animal id): 335	≤ 2
isolate (source animal id): 336	≤ 2
isolate (source animal id): 337	≤ 2
isolate (source animal id): 338	> 2
isolate (source animal id): 339	≤ 2
isolate (source animal id): 340	≤ 2
isolate (source animal id): 341	≤ 2
